The text below walks through data of article PMC6757289, “Design and Characterization of SGK3-PROTAC1, an Isoform Specific SGK3 Kinase PROTAC Degrader” (ACS Chemical Biology, 2019).

One may read the remaining activity as the signal under treatment as a percentage of the control signal.

What all share (assay): kinase profiling panel
Common to all, as to type: biochemical
Details in all cases: read-out: % Activity Remaining

The target of one test is IRR (Homo sapiens, UniProt P14616). The source says: (§1) Protein kinase profiling against a Dundee panel of 140 protein kinases was undertaken at the International Centre for Protein Kinase Profiling. The result for each kinase was presented as a mean kinase activity of the reaction taken in triplicate relative to a control sample treated with DMSO. Assay conditions and abbreviations are available at http://www.kinase-screen.mrc.ac.uk.

The target in the next test is T1, IKK beta (Homo sapiens, UniProt O14920).
T1 sequence (O14920 1-756): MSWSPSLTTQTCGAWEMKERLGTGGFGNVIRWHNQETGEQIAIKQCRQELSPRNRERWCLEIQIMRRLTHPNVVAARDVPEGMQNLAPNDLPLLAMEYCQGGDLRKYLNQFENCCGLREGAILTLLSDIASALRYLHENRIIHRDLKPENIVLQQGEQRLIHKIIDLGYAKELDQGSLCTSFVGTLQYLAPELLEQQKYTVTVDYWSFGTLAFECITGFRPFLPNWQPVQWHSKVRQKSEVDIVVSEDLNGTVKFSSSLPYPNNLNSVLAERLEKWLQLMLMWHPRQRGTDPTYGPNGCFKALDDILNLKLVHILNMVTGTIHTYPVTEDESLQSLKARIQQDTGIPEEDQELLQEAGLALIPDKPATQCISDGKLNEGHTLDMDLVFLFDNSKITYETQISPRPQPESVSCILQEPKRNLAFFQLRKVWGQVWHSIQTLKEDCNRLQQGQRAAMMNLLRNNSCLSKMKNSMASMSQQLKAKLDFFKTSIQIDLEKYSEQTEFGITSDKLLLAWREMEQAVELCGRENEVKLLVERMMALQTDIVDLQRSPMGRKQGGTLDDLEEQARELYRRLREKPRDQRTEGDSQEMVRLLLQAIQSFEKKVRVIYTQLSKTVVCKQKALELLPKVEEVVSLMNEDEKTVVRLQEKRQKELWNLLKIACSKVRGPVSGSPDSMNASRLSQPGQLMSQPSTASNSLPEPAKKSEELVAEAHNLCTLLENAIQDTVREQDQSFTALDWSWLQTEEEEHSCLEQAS
Source text: as §1

The target in the next test is WNK1 (Homo sapiens, UniProt Q9H4A3).
Source text: as §1

The target of another test is DYRK1A (Homo sapiens, UniProt Q13627).
Source text: as §1

A further test has as its target T2, NEK2a (Homo sapiens, UniProt P51955).
T2 sequence (P51955 1-445): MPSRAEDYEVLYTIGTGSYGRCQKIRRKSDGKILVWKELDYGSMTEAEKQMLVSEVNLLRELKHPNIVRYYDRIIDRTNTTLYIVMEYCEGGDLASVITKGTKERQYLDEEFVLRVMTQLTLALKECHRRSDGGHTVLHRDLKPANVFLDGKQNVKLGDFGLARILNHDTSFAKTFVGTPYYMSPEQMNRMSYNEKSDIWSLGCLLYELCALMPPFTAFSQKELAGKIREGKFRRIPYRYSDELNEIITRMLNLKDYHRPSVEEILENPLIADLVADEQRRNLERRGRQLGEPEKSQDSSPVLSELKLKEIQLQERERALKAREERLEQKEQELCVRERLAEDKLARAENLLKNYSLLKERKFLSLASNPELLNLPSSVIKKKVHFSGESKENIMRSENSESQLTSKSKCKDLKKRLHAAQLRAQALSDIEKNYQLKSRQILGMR
Source text: as §1

The next test addresses MARK2 (Homo sapiens, UniProt Q7KZI7).
Source text: as §1

The target of another test is CAMK1 (Homo sapiens, UniProt Q14012).
Source text: as §1

The next test has as its target T3, MAP4K3 (Homo sapiens, UniProt Q8IVH8).
T3 sequence (Q8IVH8 1-894): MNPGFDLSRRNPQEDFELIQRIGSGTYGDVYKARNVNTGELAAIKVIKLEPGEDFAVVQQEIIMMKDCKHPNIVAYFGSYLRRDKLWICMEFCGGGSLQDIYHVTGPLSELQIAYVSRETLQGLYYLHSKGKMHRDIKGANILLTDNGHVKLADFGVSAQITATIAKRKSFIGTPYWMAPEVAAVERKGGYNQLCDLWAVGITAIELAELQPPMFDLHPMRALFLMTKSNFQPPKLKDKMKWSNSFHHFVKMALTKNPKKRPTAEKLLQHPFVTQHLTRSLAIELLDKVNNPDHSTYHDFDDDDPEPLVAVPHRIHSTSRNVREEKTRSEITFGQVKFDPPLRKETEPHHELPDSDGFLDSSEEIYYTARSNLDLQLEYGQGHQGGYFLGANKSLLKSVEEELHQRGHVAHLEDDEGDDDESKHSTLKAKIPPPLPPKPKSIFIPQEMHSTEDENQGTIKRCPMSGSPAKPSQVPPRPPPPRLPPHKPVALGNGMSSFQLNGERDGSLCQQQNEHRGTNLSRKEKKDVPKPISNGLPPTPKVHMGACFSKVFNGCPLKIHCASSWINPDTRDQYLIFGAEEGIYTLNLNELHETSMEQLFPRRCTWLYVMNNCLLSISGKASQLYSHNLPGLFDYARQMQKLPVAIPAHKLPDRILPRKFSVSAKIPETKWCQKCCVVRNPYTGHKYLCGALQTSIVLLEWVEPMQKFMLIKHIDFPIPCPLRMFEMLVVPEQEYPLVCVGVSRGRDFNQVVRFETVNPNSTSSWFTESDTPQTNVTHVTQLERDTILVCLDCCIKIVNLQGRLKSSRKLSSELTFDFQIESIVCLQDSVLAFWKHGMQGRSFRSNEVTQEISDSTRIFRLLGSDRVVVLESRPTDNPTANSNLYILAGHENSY
Source text: as §1

The target in a further test is PLK1 (Homo sapiens, UniProt P53350).
Source text: as §1

Another test addresses p38 alpha MAPK (Homo sapiens, UniProt Q16539).
Source text: as §1

The structures appear in SMILES notation. Like-named read-outs stand apart in the source and are kept apart here.

Chain of PLK1 (P53350 whole entry): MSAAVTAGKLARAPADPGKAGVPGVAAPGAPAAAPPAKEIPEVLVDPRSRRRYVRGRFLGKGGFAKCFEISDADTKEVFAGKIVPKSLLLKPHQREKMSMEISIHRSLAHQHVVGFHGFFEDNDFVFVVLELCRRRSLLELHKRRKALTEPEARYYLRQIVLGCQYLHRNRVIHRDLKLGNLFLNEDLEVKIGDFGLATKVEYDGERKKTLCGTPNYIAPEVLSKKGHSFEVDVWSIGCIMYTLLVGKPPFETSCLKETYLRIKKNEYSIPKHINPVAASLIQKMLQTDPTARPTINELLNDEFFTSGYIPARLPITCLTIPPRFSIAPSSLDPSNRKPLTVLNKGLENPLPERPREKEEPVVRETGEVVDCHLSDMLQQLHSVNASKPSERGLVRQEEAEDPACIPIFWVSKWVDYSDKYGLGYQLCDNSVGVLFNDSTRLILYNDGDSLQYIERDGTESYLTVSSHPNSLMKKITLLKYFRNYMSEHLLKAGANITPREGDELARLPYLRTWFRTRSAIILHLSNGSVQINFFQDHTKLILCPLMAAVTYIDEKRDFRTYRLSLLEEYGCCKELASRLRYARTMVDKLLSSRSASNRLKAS
Chain of p38 alpha MAPK (Q16539 whole entry): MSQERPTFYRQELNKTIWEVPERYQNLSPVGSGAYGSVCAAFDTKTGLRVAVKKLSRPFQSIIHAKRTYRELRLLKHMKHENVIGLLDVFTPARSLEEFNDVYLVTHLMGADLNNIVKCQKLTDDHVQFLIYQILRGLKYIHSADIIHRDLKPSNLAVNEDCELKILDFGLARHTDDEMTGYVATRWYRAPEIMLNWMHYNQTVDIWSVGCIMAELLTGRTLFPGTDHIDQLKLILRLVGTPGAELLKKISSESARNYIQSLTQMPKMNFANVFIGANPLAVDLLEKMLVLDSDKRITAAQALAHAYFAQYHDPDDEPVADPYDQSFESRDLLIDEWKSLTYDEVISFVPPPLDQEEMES
Chain of MARK2 (Q7KZI7 whole entry): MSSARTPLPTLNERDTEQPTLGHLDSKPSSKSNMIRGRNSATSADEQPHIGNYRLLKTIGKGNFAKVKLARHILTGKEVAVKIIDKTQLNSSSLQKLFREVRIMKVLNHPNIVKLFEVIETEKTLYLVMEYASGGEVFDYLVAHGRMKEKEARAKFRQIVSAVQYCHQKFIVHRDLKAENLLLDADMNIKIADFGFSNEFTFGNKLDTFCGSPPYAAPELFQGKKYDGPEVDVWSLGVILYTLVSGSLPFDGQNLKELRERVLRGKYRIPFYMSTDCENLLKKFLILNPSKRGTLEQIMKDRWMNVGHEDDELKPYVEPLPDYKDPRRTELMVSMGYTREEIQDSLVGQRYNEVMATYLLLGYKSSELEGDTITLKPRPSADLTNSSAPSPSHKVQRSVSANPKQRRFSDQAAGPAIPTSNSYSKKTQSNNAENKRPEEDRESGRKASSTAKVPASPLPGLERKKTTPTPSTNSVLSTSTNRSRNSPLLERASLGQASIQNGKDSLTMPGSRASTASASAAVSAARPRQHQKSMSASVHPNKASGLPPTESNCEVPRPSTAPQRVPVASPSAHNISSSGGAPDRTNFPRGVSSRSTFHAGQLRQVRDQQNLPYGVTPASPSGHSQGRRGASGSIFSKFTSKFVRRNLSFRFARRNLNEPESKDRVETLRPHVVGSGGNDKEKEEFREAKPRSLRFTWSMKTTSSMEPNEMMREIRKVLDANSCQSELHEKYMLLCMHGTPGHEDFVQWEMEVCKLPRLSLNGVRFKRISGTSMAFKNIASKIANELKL
Chain of IRR (P14616 27-1297): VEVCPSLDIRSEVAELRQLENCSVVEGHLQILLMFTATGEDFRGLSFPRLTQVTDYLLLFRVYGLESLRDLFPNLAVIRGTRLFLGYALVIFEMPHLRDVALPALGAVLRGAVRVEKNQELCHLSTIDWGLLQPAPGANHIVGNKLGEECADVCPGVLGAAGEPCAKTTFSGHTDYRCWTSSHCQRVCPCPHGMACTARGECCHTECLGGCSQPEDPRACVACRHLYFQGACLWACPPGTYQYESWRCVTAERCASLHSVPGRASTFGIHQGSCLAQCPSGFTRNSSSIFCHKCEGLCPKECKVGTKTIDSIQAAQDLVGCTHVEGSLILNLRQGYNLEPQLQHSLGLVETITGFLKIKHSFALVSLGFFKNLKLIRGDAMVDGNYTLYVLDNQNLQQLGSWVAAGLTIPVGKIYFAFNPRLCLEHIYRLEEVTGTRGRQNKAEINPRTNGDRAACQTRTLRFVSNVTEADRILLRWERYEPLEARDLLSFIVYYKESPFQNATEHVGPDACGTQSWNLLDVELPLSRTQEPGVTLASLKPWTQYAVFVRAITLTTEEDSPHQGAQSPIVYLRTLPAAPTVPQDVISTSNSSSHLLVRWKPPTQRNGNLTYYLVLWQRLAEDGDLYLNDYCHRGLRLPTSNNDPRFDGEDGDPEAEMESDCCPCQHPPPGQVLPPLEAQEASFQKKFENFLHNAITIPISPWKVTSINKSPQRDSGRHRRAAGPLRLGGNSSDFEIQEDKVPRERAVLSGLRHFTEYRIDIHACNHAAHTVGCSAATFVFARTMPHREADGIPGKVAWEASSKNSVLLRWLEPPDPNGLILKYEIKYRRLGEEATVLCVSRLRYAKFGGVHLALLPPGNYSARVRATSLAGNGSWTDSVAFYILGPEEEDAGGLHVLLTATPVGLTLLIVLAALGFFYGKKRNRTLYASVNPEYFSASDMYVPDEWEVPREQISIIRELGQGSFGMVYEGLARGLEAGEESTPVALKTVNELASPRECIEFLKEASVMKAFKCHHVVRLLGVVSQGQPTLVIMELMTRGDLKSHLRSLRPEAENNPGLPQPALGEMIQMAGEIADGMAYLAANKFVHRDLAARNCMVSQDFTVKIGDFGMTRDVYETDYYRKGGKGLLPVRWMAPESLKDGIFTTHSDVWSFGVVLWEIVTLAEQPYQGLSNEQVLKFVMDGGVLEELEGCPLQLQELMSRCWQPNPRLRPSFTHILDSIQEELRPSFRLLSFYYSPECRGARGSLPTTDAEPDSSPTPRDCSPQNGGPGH
Chain of CAMK1 (Q14012 whole entry): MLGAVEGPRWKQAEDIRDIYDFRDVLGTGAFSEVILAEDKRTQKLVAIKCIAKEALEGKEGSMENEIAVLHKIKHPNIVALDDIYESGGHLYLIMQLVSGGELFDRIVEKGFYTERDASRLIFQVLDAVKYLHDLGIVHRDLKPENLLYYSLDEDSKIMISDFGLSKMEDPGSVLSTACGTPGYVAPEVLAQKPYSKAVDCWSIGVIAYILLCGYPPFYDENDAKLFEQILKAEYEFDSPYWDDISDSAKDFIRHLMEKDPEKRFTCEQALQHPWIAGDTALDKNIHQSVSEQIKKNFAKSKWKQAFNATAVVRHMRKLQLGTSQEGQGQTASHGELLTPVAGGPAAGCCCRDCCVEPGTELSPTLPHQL

As to `COc1ccc(Cl)c(S(=O)(=O)Nc2ccc(-c3nc(OC[C@H]4CNCCO4)c4c(C)n[nH]c4n3)cc2)c1` [290-R, reference compound], the remaining activity at 1 µM at IRR stood at 96%; on IKK beta, 102%; on WNK1 it was 110%; at DYRK1A, 103%; at NEK2a it was 74%; at MARK2, 113%. In addition, the remaining activity at 1 µM at CAMK1 was 3%; at MAP4K3, 2%; at PLK1, 102%; on p38 alpha MAPK, 111%.
For the compound `Cc1ccc(F)c(S(=O)(=O)Nc2ccc(-c3nc(OC[C@H]4CNCCO4)c4cn[nH]c4n3)cc2)c1` [308-R, reference compound], the remaining activity at 1 µM at IRR is 106%; at IKK beta it was 67%; on WNK1, 75%; at DYRK1A it was 81%; at NEK2a, 67%; on MARK2, 94%. In addition, the remaining activity at 1 µM was 22% on CAMK1, 8% at MAP4K3, 86% at PLK1 and 88% on p38 alpha MAPK.
On to `Cc1ccc(F)c(S(=O)(=O)Nc2ccc(-c3nc(OC[C@H]4CN(CCCCCCOCCOCCOCC(=O)N[C@H](C(=O)N5C[C@H](O)C[C@H]5C(=O)NCc5ccc(-c6scnc6C)cc5)C(C)(C)C)CCO4)c4cn[nH]c4n3)cc2)c1` [SGK3-PROTAC1], for which the remaining activity at 1 µM was 103% at IRR (1 µM); 100% at IKK beta (1 µM); 94% at WNK1 (1 µM); 105% at DYRK1A (1 µM); 162% on NEK2a (1 µM); 102% on MARK2 (1 µM). Moreover, the remaining activity at 1 µM at CAMK1 (1 µM) came to 86%; at MAP4K3 (1 µM) it was 99%; at PLK1 (1 µM), 98%; at p38 alpha MAPK (1 µM), 125%.
On to `Cc1ccc(F)c(S(=O)(=O)Nc2ccc(-c3nc(OC[C@H]4CN(CCCCCCOCCOCCOCC(=O)N[C@H](C(=O)N5C[C@@H](O)C[C@H]5C(=O)NCc5ccc(-c6scnc6C)cc5)C(C)(C)C)CCO4)c4cn[nH]c4n3)cc2)c1` [cisSGK3-PROTAC1], for which the remaining activity at 1 µM on IRR (1 µM) is 90%; at IKK beta (1 µM), 101%; at WNK1 (1 µM), 97%; at DYRK1A (1 µM) it was 99%; at NEK2a (1 µM), 139%; at MARK2 (1 µM) it was 112%. The remaining activity at 1 µM amounted to 105% on CAMK1 (1 µM), 95% on MAP4K3 (1 µM), 98% at PLK1 (1 µM) and 109% at p38 alpha MAPK (1 µM).
